Here are results for one substance from patent US11274214B2, “Composition of water based coating with a low content of volatile organic compounds and high resistance to dirt handle, and, use of water based coating” (OXITENO S.A. INDÚSTRIA E COMÉRCIO, priority 2017, dated 2022).

Series [1] in a line: Physical and chemical properties of isopentyl succinate.
The nature of series [2]: Estimated Hansen solubility parameters and octanol/water partition coefficient of coalescents. The source says:
In order to perform the comparative tests, two commercially available products, Texanol™ and OPTIFILM 300™, were used.

In series [1], isopentyl succinate came in with a Density of 0.966 g/mL, a Freezing point of −25 °C and a Relative evaporation rate of 0.029. In addition, in series [1] (method 24), the “Volatile content according to method 24” value is on record as 50%. In series [2], the “Solubility in water (suggested by octanol/water partition coefficients)” value is recorded as “low solubility in water”.
